Positions of bridges follow the written chain, without caps; N, C: chain ends. Residues, ends and D or L forms follow the SMILES beside them. No end group written: not given here.
How the values were obtained:
rat = test system: rat; design: method as in 2 sources, one per row (each row's own in cited_ref): ref 82 = [82]; PMID 15985330; doi:10.1016/j.neulet.2005.05.050; 82. Deschaux O , Bizot JC . Apamin produces selective improvements of learning in rats . Neurosci Lett. 2005; 386 : 5 – 8 . 10.1016/j.neulet.2005.05.050 15985330 ||| ref 26, 82, 83 = [26]; PMID 18561910; doi:10.1016/j.ejphar.2008.05.019; 26. Mpari B , Sreng L , Regaya I , Mourre C . Small-conductance Ca(2+)-activated K(+) channels: heterogeneous affinity in rat brain structures and cognitive modulation by specific blockers . Eur J Pha || [82]; PMID 15985330; doi:10.1016/j.neulet.2005.05.050; 82. Deschaux O , Bizot JC . Apamin produces selective improvements of learning in rats . Neurosci Lett. 2005; 386 : 5 – 8 . 10.1016/j.neulet.2005.05.050 15985330 || [83]; PMID 9148239; doi:10.1016/s0304-3940(97)13367-5; 83. Deschaux O , Bizot JC , Goyffon M . Apamin improves learning in an object recognition task in rats . Neurosci Lett. 1997; 222 : 159 – 162 . 10.1016/s0304-3940(97)13367-5 9148239; details: cited from earlier work
KCNN2 = details: compared with Lei-Dab7; cited from earlier work
Excerpt: KCNN2 plays a key role in regulating neuronal excitability by controlling the medium afterhyperpolarization.[20] Previous studies have shown that KCNN2 blockers have therapeutic effects to improve learning and memory in several mouse and rat models of neuropsychiatric disorders associated with increased KCNN2 expression.[21–24] […] In the current study, we used another KCNN2 blocker, Lei-Dab7 (a synthetic derivative of leiurotoxin), a peptide isolated from the venom of the yellow scorpion (L. quinquestriatus hebraeus). […] We evaluated intranasal administ ... || Taken together, our findings advocate for the therapeutic potential of Lei-Dab7 or other KCNN2 blockers for FASD and possibly other neurodevelopmental diseases that similarly involve KCNN2 upregulation, such as Angelman syndrome.[21] Lei-Dab7 stands out for its high potency and specificity in blocking the KCNN2 channel. […] Despite outstanding properties, Lei-Dab7’s bioavailability, efficacy, and toxicity as a the ...

KCNN (SK) channel = details: cited from earlier work
[1] = test system: older adults affected by Alzheimer disease or mild cognitive impairment; details: intranasal; older adults with Alzheimer disease or mild cognitive impairment; cited from earlier work
Excerpt: (§1) The potential of intranasal delivery in treating a broad spectrum of neurological disorders, especially those related to memory and cognition, is noteworthy.[28] Historically, intranasal administration has gained attention in clinical trials as an effective delivery method, especially for small molecules ...

[2] = intranasal vs subcutaneous or intramuscular administration; cited from earlier work
Excerpt: as §1

[3] = test system: neurodevelopmental disorders such as autism spectrum disorder; details: nasal application; cited from earlier work
Excerpt: as §1

[4] = pregnant CD-1 mice, i.p. 4.0 g/kg/day 25% ethanol at E16 and E17; from 30 minutes after injection at E16 to 1 hour after injection at E17; cited from earlier work
Experimental: All mice (CD-1) used in this study were purchased from Charles River Laboratories and were maintained in-house on a light–dark cycle (lights on 6:00 AM to 6:00 PM) at a constant temperature (22 ± 1°C). Pregnant mice received i.p. injections of 25% ethanol in PBS at 4.0 g/kg/day or PBS only as the control at embryonic day (E) 16 and E17. The dam’s blood alcohol concentration ranges from approximately 140 to 300 mg/dL (from 30 minutes after injection at E16 to 1 hour after injection at E17).[35] All procedures were approved by the institutional animal care and use committee of the Children’s Nat ...

[5] = i.p. administration, PAE mice; cited from earlier work
Excerpt: KCNN2 plays a key role in regulating neuronal excitability by controlling the medium afterhyperpolarization.[20] Previous studies have shown that KCNN2 blockers have therapeutic effects to improve learning and memory in several mouse and rat models of neuropsychiatric disorders associated with increased KCNN2 expression.[21–24]

human KCNN2 = human KCNN2 (Homo sapiens, UniProt Q9H2S1); assay: Thallium flux assay, KCNN2 channel block; type: cell-based; details: HEK293 stably expressing human KCNN2; thallium flux, FLIPR Potassium Assay Kit, FLIPR TETRA; 4 concentrations, n = 4; 0% = 1 μM A23187, 100% = 3 μM UCL1684
Experimental: The effect of tamapin and Lei-Dab7 to block the KCNN2 channel was assessed by the thallium flux (potassium ion surrogate) assay using FLIPR Potassium Assay KIT (Molecular Devices, CA) and a FLIPR TETRA fluorescence imaging plate reader (Molecular Devices, CA). Human embryonic kidney (HEK) 293 cell line stably expressing human KCNN2 (Charles River, MA) were plated on BioCoat Poly-D-Lysine 384-well Black/Clear Plates (BD Biosciences, NJ) at 15 000 to 30 000 cells per well and incubated at 37°C overnight or until cells form near confluent monolayer. A baseline fluorescence was recorded during the pre-incubation period, followed by activation in the stimulus buffer (K^+-free buffer with 5 mM Tl^+). The effects of tamapin and Lei-Dab7 on KCNN2 to inhibit KCNN2 channel were evaluated at 4 different concentrations (n = 4) each, based on fluorescence changes due to the treatments. The signal elicited by the respective positive control agonist [1 μM A23187 (Tocris, UK)] was set to 0% inhibition, and the signal in the presence of the respective positive control antagonists [3 μM UCL1684 (Tocris, UK)] was set to 100% inhibition. The IC50 values were defined as the concentration at which the percent inhibition equals 50.
To determine the dose of Lei-Dab7 to be tested, we compared the effect of Lei-Dab7 and tamapin in blocking human KCNN2 expressed in HEK293 cells using a thallium-based potassium ion channel assay. […] Based on the effective dose of tamapin in mitigating motor skill–learning deficits in PAE mice (15 μg/kg body weight via i.p.)[17] and higher brain uptake of therapeutics by intranasal delivery than by i.p. delivery, we chose a dose of 3.0 μg/kg body weight to test the effect of intranasal administration of Lei-Dab7.
Supplementary Figure 3. Concentration-response relationships of Lei-Dab7 and Tamapin on the Inhibition of KCNN2 channels. (A, B) The concentration-response relationships of Lei-Dab7 (A) and Tamapin (B) on the inhibition of KCNN2 (SK2) channels examined by the thallium flux assay are presented. […]

Sequence of human KCNN2 (Q9H2S1 whole entry): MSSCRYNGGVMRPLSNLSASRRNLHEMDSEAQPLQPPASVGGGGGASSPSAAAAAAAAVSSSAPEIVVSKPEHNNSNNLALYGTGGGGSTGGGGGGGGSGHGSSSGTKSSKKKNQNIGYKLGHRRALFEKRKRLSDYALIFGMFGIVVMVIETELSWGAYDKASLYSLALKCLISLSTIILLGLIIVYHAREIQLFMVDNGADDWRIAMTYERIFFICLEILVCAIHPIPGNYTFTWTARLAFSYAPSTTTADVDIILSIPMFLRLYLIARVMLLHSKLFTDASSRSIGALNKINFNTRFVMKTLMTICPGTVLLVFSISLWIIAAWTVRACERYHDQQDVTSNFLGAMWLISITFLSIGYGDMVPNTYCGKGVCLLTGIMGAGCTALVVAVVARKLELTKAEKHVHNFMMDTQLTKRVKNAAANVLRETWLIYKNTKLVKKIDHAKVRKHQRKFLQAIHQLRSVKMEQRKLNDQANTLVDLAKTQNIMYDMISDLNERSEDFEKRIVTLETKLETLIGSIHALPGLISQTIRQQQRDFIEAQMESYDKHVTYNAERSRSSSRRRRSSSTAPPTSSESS

Compound: apamin (CNCKAPETALCARRCQQH-NH2; disulfide 1-11, 3-15; UniProt P01500 28-45, looked up)
- effect on learning (rat): promote learning
- KCNN2 selectivity in words (KCNN2): less selective KCNN2 blocker
- KCNN (SK) channel blocking specificity (KCNN (SK) channel): nonspecific KCNN (SK) channel blockers

Compound: scyllatoxin (AFCNLRMCQLSCRSLGLLGKCIGDKCECVKH; UniProt P16341 1-31, looked up)
- KCNN (SK) channel blocking specificity (KCNN (SK) channel): nonspecific KCNN (SK) channel blockers

Compound: insulin
- memory effect [1]: improving memory

Compound: mouse [D-Leu-4]OB3 [synthetic leptin-like peptide]
- brain bioavailability, intranasal vs other methods (times) [2]: 4 times

Compound: oxytocin
- efficacy, repeated doses [3]: inconsistent
- efficacy, single administration [3]: promising

Compound: c1cc2cc(c1)C[n+]1ccc(c3ccccc31)NCc1ccc(cc1)CNc1cc[n+](c3ccccc13)C2 [UCL 1684]
- KCNN (SK) channel blocking specificity (KCNN (SK) channel): nonspecific KCNN (SK) channel blockers

Compound: c1ccc2c(c1)c1cc[n+]2CCCCC[n+]2ccc(c3ccccc32)NCCCCCN1 [UCL 1848]
- KCNN (SK) channel blocking specificity (KCNN (SK) channel): nonspecific KCNN (SK) channel blockers

Compound: CCO [ethanol]
- dam's blood alcohol concentration [4]: 140 to 300 mg/dL

Compound: CC[C@H](C)[C@@H]1NC(=O)[C@@H]2CSSC[C@H](NC(=O)[C@H](Cc3ccccc3)NC(=O)[C@H](C)N)C(=O)N[C@@H](CC(N)=O)C(=O)N[C@@H](CC(C)C)C(=O)N[C@@H](CCCNC(=N)N)C(=O)N[C@@H](CCCNC(=N)N)C(=O)N[C@H]3CSSC[C@H](NC(=O)[C@H](CCC(=O)O)NC(=O)[C@H](CCC(=O)O)NC(=O)CNC1=O)C(=O)N[C@@H](CCCCN)C(=O)N[C@H](C(=O)N[C@H](C(=O)N1CCC[C@H]1C(=O)N[C@@H](Cc1ccc(O)cc1)C(N)=O)C(C)C)CSSC[C@H](NC(=O)[C@H](CO)NC(=O)[C@H](CC(C)C)NC(=O)[C@H](CCC(=O)O)NC3=O)C(=O)N[C@@H](CCCNC(=N)N)C(=O)N[C@@H](CO)C(=O)N[C@@H](CC(C)C)C(=O)NCC(=O)N[C@@H](CC(C)C)C(=O)N[C@@H](CC(C)C)C(=O)NCC(=O)N[C@@H](CCCCN)C(=O)N2 [tamapin] (H-AFCNLRRCELSCRSLGLLGKCIGEECKCVPY-NH2; disulfide 3-21, 8-26, 12-28)
- crosses the blood brain barrier [5]: crosses the blood brain barrier
- IC50 (human KCNN2): 50 nM

Compound: CN1CCc2cc3c(cc2[C@H]1[C@@H]1OC(=O)c2c1ccc1c2OCO1)OCO3 [bicuculline]
- KCNN (SK) channel blocking specificity (KCNN (SK) channel): nonspecific KCNN (SK) channel blockers
